Measured values reported in ChEMBL document CHEMBL1201862, “PubChem BioAssay data set” (2004).
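Results reflect a 48-hour exposure of cells in 96-well plates to compound at five concentrations. Abbreviation: GI50, concentration required for 50% inhibition of growth.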 Activity calls are given as the source filed them. No stated cut-off is given here; in the data, active = GI50 up to about 1.1 µM and inactive = higher.

How the values were obtained:
Experiment in all cases: inhibition of tumour cell growth, NCI panel, 48 h
ACHN = test system: ACHN
CAKI-1 = test system: CAKI-1
DU-145 = test system: DU-145
HCC 2998 = test system: HCC 2998
HCT-15 = test system: HCT-15
HOP-92 = test system: HOP-92
IGROV-1 = test system: IGROV-1
MDA-MB-231 = test system: MDA-MB-231
MDA-MB-435 = test system: MDA-MB-435
Malme-3M = test system: Malme-3M
NCI-H460 = test system: NCI-H460
OVCAR-5 = test system: OVCAR-5
RXF 393 = test system: RXF 393
SF-539 = test system: SF-539
SNB-19 = test system: SNB-19
SNB-75 = test system: SNB-75
T47D = test system: T47D
U-251 = test system: U-251
SK-OV-3 = test system: SK-OV-3
UO-31 = test system: UO-31

| Structure (SMILES) | GI50 (ACHN) | GI50 (CAKI-1) | GI50 (DU-145) | GI50 (HCC 2998) | GI50 (HCT-15) [µM] | GI50 (HOP-92) | GI50 (IGROV-1) | GI50 (MDA-MB-231) | GI50 (MDA-MB-435) | GI50 (Malme-3M) | GI50 (NCI-H460) | GI50 (OVCAR-5) | GI50 (RXF 393) | GI50 (SF-539) | GI50 (SNB-19) | GI50 (SNB-75) | GI50 (T47D) | GI50 (U-251) | GI50 (SK-OV-3) | GI50 (UO-31) |
| --- | --- | --- | --- | --- | --- | --- | --- | --- | --- | --- | --- | --- | --- | --- | --- | --- | --- | --- | --- | --- |
| O=c1oc2ccc(Cl)cc2c2ccccc12 | > 100 µM (inactive) | 43 µM (inactive) | > 100 µM (inactive) | > 100 µM (inactive) | > 100 | 23.2 µM (inactive) | 71.8 µM (inactive) | 17.4 µM (inactive) | > 100 µM (inactive) | > 100 µM (inactive) | > 100 µM (inactive) | 78.3 µM (inactive) | 22.1 µM (inactive) | > 100 µM (inactive) | 20 µM (inactive) | 39.2 µM (inactive) | > 100 µM (inactive) | 15.1 µM (inactive) |  |  |
| Cc1ccc(/N=N/C(=N/c2ccccc2)c2ccc(N(CCC#N)CCC#N)cc2)cc1 | 46 µM (inactive) | 55.5 µM (inactive) | 36.6 µM (inactive) | 19.4 µM (inactive) | 44.8 | 22 µM (inactive) | 20.3 µM (inactive) | 22.1 µM (inactive) | 38 µM (inactive) |  | 20.1 µM (inactive) | 54.2 µM (inactive) | 22.3 µM (inactive) | 28.8 µM (inactive) | 37.5 µM (inactive) | 31.1 µM (inactive) | 23.7 µM (inactive) | 15.8 µM (inactive) | 30.8 µM (inactive) | 60.3 µM (inactive) |
| COC(=O)[C@]1(C)CCC[C@@]2(C)C1CC[C@@]13C=C(C(C)C)[C@@H](CC1=O)CC23 (stereo not given in full) | 18.6 µM (inactive) | 34.2 µM (inactive) | 38.4 µM (inactive) | 38.3 µM (inactive) | 21.1 |  | 35.2 µM (inactive) | 30.3 µM (inactive) | 35.6 µM (inactive) |  | 35.4 µM (inactive) |  | 21.5 µM (inactive) | 20.9 µM (inactive) | 25.8 µM (inactive) | 59.7 µM (inactive) | 32.4 µM (inactive) | 18.7 µM (inactive) | 46.3 µM (inactive) | 21.7 µM (inactive) |
| CC(C)(C)c1cc([N+](=O)[O-])cc([N+](=O)[O-])c1O [DINOTERB] | > 10 µM (inactive) | 5.6 µM (inactive) | 9.59 µM (inactive) | > 10 µM (inactive) | > 10 | 2.77 µM (inactive) | > 10 µM (inactive) | > 10 µM (inactive) | > 10 µM (inactive) |  | 7.98 µM (inactive) | > 10 µM (inactive) | > 10 µM (inactive) | > 10 µM (inactive) | > 10 µM (inactive) | > 10 µM (inactive) | > 10 µM (inactive) | > 10 µM (inactive) | > 10 µM (inactive) | > 10 µM (inactive) |
| O=[N+]([O-])c1ccc(/C=N/n2c(CO)nc3ccccc32)o1 | 4.25 µM (inactive) | 9.68 µM (inactive) | 3.27 µM (inactive) |  | 2.84 | 3.51 µM (inactive) | 0.993 µM (active) | 5.36 µM (inactive) | 3.4 µM (inactive) | 2.16 µM (inactive) | 3.29 µM (inactive) | 11.9 µM (inactive) | 5.07 µM (inactive) | 17.9 µM (inactive) | 15.8 µM (inactive) | 24.6 µM (inactive) | 20.5 µM (inactive) | 13.9 µM (inactive) | 18.2 µM (inactive) | 8.32 µM (inactive) |
| COc1cc(C2SCC(=O)N2NC(=O)c2ccc(NC(C)=O)cc2)cc(OC)c1OC (stereo not given) | > 100 µM (inactive) |  | > 100 µM (inactive) | > 100 µM (inactive) | > 100 | > 100 µM (inactive) | > 100 µM (inactive) | > 100 µM (inactive) | > 100 µM (inactive) |  | > 100 µM (inactive) | > 100 µM (inactive) | > 100 µM (inactive) | > 100 µM (inactive) | > 100 µM (inactive) | > 100 µM (inactive) | > 100 µM (inactive) | > 100 µM (inactive) | > 100 µM (inactive) | > 100 µM (inactive) |
| Cc1ccc2c(c1)CC1(Cc3ccccc3C1=O)C2=O (stereo not given) | > 100 µM (inactive) |  | > 100 µM (inactive) | > 100 µM (inactive) | > 100 | 64.3 µM (inactive) | > 100 µM (inactive) | > 100 µM (inactive) | > 100 µM (inactive) | > 100 µM (inactive) | > 100 µM (inactive) | 55.6 µM (inactive) | > 100 µM (inactive) | > 100 µM (inactive) | > 100 µM (inactive) | > 100 µM (inactive) | > 100 µM (inactive) | > 100 µM (inactive) | > 100 µM (inactive) | > 100 µM (inactive) |
| O=C1C(c2c(O)[nH]c3ccc(I)cc23)=Nc2ccccc21 | 3.23 µM (inactive) | 7.06 µM (inactive) | 4.74 µM (inactive) |  | 7.21 | 3.24 µM (inactive) | 0.0873 µM (active) | 2.65 µM (inactive) | 12.1 µM (inactive) | 8.17 µM (inactive) | 10.4 µM (inactive) | 11.8 µM (inactive) | 3.24 µM (inactive) | 5.27 µM (inactive) | 4.95 µM (inactive) | 4.23 µM (inactive) | 3.51 µM (inactive) | 2.87 µM (inactive) | 3.97 µM (inactive) | 4.02 µM (inactive) |
| O=[N+]([O-])/C(C(Cl)=C(Cl)Cl)=C1/OCCS1 | 20.4 µM (inactive) | 29.6 µM (inactive) | 42.2 µM (inactive) | 37.9 µM (inactive) | 21.3 |  | 24.4 µM (inactive) | 17.5 µM (inactive) | 22.6 µM (inactive) | 17.7 µM (inactive) | 27 µM (inactive) | 32.4 µM (inactive) | 19.3 µM (inactive) | 21.3 µM (inactive) | 50.4 µM (inactive) | 13.9 µM (inactive) | 37.2 µM (inactive) | 36 µM (inactive) | 48.6 µM (inactive) | 23.1 µM (inactive) |
| CN(C)CCNC(=O)c1cccc(C(=O)Nc2ccccc2)c1[N+](=O)[O-] | > 100 µM (inactive) | > 100 µM (inactive) | > 100 µM (inactive) | > 100 µM (inactive) | > 100 |  | > 100 µM (inactive) | > 100 µM (inactive) | > 100 µM (inactive) | 48.5 µM (inactive) | > 100 µM (inactive) | > 100 µM (inactive) |  | > 100 µM (inactive) | > 100 µM (inactive) | 34.8 µM (inactive) | > 100 µM (inactive) | > 100 µM (inactive) | > 100 µM (inactive) | > 100 µM (inactive) |
| COC(=O)CCCc1ccc2c(c1)CCC2 | > 100 µM (inactive) | > 100 µM (inactive) | > 100 µM (inactive) | > 100 µM (inactive) | > 100 | > 100 µM (inactive) | > 100 µM (inactive) | > 100 µM (inactive) | > 100 µM (inactive) | > 100 µM (inactive) | > 100 µM (inactive) | > 100 µM (inactive) |  | > 100 µM (inactive) | > 100 µM (inactive) | > 100 µM (inactive) | > 100 µM (inactive) | > 100 µM (inactive) | > 100 µM (inactive) | > 100 µM (inactive) |
| COC(=O)Nc1cc(OCCCOC(C)=O)c2[nH]c(C(=O)OC)cc2c1C[C@H](O)CO | > 100 µM (inactive) | > 100 µM (inactive) | > 100 µM (inactive) | > 100 µM (inactive) | > 100 | 11.1 µM (inactive) | 90.4 µM (inactive) | > 100 µM (inactive) | > 100 µM (inactive) |  |  | > 100 µM (inactive) |  | > 100 µM (inactive) | > 100 µM (inactive) |  | > 100 µM (inactive) | > 100 µM (inactive) | > 100 µM (inactive) | > 100 µM (inactive) |
| COc1ccc(C(=O)O[C@@H]2CCN3CC[C@H](C)[C@H]23)cc1 | > 100 µM (inactive) | > 100 µM (inactive) | > 100 µM (inactive) |  | > 100 | > 100 µM (inactive) | > 100 µM (inactive) | > 100 µM (inactive) | > 100 µM (inactive) |  | > 100 µM (inactive) | > 100 µM (inactive) | 45.9 µM (inactive) | > 100 µM (inactive) | > 100 µM (inactive) | > 100 µM (inactive) | > 100 µM (inactive) | > 100 µM (inactive) | > 100 µM (inactive) | 58.1 µM (inactive) |
| CN1CCN(c2ccc(-n3cc(C(=O)O)c(=O)c4cc(F)c(N5CCN(C)CC5)cc43)nc2)CC1 |  | > 100 µM (inactive) | > 100 µM (inactive) |  | > 100 | > 100 µM (inactive) | > 100 µM (inactive) | > 100 µM (inactive) | > 100 µM (inactive) | 95.5 µM (inactive) | > 100 µM (inactive) | > 100 µM (inactive) | > 100 µM (inactive) | > 100 µM (inactive) | > 100 µM (inactive) | > 100 µM (inactive) | > 100 µM (inactive) | > 100 µM (inactive) | > 100 µM (inactive) | > 100 µM (inactive) |
| C/C(=N\NC(=S)N1CCCCCCCCCCCC1)c1ccccn1 | 0.215 µM (active) | 0.246 µM (active) | 0.533 µM (active) | 0.385 µM (active) | 0.216 | 0.111 µM (active) | 0.212 µM (active) | 0.169 µM (active) | 0.15 µM (active) | 0.281 µM (active) | 0.256 µM (active) | 0.971 µM (active) | 0.0769 µM (active) | 0.199 µM (active) | 0.659 µM (active) | 0.243 µM (active) | 0.233 µM (active) | 0.0673 µM (active) |  | 0.349 µM (active) |
